In paper PMC9090415, “Discovery of small molecule inhibitors of Plasmodium falciparum apicoplast DNA polymerase” (Journal of Enzyme Inhibition and Medicinal Chemistry, 2022):

Molecular target: P. falciparum apicoplast DNA polymerase (Pf-apPOL) (Plasmodium falciparum, UniProt Q8ILY1)
Assay: Fluorescence-based high-throughput DNA polymerase assay (molecular beacon), primary screen and dose-response;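 as to % inhibition ApPOL 90': test concentration in µM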;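 as to % inhibition apPOL 180': test concentration in µM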
Type: biochemical
Conditions: for DNA Pol: unit not given, 90 min, 10 µM; for IC50: supplemental file 2, sheet IC50 nontoxic compounds, Pf-apPOL
Procedure, shortened: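 Single-point screening used 10 µM compound with 20 nM polymerase, 20 nM hairpin substrate and 6 µM dNTPs for 90 min at 25 °C. Confirmatory titrations (2.5–80 µM) followed fluorescence at three times, and IC50 was derived from a fit including a cooperativity term n.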

P. falciparum apicoplast DNA polymerase (Pf-apPOL), sequence (Q8ILY1 entry or part of it): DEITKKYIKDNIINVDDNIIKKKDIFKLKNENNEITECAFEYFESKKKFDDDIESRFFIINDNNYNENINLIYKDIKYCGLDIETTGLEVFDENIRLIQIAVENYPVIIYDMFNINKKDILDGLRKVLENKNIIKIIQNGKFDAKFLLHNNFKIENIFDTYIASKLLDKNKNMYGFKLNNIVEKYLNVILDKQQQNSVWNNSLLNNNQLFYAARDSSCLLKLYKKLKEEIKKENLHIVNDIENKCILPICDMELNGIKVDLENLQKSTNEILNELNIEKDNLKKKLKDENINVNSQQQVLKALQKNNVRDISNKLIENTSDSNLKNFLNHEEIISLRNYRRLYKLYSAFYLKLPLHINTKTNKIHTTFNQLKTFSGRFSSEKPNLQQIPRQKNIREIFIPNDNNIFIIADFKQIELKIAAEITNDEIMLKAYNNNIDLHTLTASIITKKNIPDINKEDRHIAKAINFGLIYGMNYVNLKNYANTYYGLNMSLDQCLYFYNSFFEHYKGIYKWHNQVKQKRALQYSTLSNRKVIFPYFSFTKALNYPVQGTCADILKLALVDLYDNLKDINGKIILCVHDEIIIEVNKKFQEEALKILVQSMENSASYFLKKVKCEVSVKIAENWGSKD

Cc1cccc(CC(=O)N2CCc3c(nc4cc(-c5ccccc5)[nH]n4c3=O)C2)c1 [Molecule 12, Cc1cccc(c1)CC(=O)N1CCc2c(C1)nc1n(c2=O)[nH]c(c1)c1ccccc1]
% inhibition Apo pol 10' (DRC-1, concentration 2.5): 15% | % inhibition Apo pol 10' (DRC-1, concentration 5): 48% | % inhibition Apo pol 10' (DRC-1, concentration 10): 68% | % inhibition Apo pol 10' (DRC-1, concentration 20): 81% | % inhibition Apo pol 10' (DRC-1, concentration 40): 86% | % inhibition Apo pol 10' (DRC-1, concentration 80): 83% | % inhibition Apol 90' (DRC-1, 90', concentration 2.5): 3.59% | % inhibition Apol 90' (DRC-1, 90', concentration 5): 28% | % inhibition Apol 90' (DRC-1, 90', concentration 10): 50% | % inhibition Apol 90' (DRC-1, 90', concentration 20): 69% | % inhibition Apol 90' (DRC-1, 90', concentration 40): 81% | % inhibition Apol 90' (DRC-1, 90', concentration 80): 85% | % inhibition apPOL 180' (DRC-1, 180', concentration 2.5): -4% | % inhibition apPOL 180' (DRC-1, 180', concentration 5): 13% | % inhibition apPOL 180' (DRC-1, 180', concentration 10): 32% | % inhibition apPOL 180' (DRC-1, 180', concentration 20): 55% | % inhibition apPOL 180' (DRC-1, 180', concentration 40): 73% | % inhibition apPOL 180' (DRC-1, 180', concentration 80): 82% | % inhibition Apo pol 5' (DRC-2, 5', concentration 10 (unit not given)): 44% | % inhibition Apo pol 5' (DRC-2, 5', concentration 40 (unit not given)): 48% | % inhibition Apol 40' (DRC-2, 40', concentration 40 (unit not given)): 66% | % inhibition ApPOL 90' (DRC-2, 90', concentration 20 (unit not given)): 66% | % inhibition ApPOL 90' (DRC-2, 90', concentration 40 (unit not given)): 70% | % inhibition apPOL 180' (DRC-2, 180', concentration 10 (unit not given)): 44% | % inhibition apPOL 180' (DRC-2, 180', concentration 40 (unit not given)): 70% | % inhibition apPOL 180' (DRC-2, 180', concentration 80 (unit not given)): 69% | % inhibition Apo pol 5' (DRC-2, 5', concentration 2.5): 7% | % inhibition Apo pol 5' (DRC-2, 5', concentration 5): 23% | % inhibition Apo pol 5' (DRC-2, 5', concentration 10): 44% | % inhibition Apo pol 5' (DRC-2, 5', concentration 20): 49% | % inhibition Apo pol 5' (DRC-2, 5', concentration 40): 48% | % inhibition Apo pol 5' (DRC-2, 5', concentration 80): 43% | % inhibition Apol 40' (DRC-2, 40', concentration 2.5): 5.58% | % inhibition Apol 40' (DRC-2, 40', concentration 5): 25% | % inhibition Apol 40' (DRC-2, 40', concentration 10): 54% | % inhibition Apol 40' (DRC-2, 40', concentration 20): 65% | % inhibition Apol 40' (DRC-2, 40', concentration 40): 66% | % inhibition Apol 40' (DRC-2, 40', concentration 80): 62% | % inhibition ApPOL 90' (DRC-2, 90', concentration 2.5): 4.61% | % inhibition ApPOL 90' (DRC-2, 90', concentration 5): 22% | % inhibition ApPOL 90' (DRC-2, 90', concentration 10): 53% | % inhibition ApPOL 90' (DRC-2, 90', concentration 20): 66% | % inhibition ApPOL 90' (DRC-2, 90', concentration 40): 70% | % inhibition ApPOL 90' (DRC-2, 90', concentration 80): 67% | % inhibition apPOL 180' (DRC-2, 180', concentration 2.5): 2.3% | % inhibition apPOL 180' (DRC-2, 180', concentration 5): 12% | % inhibition apPOL 180' (DRC-2, 180', concentration 10): 44% | % inhibition apPOL 180' (DRC-2, 180', concentration 20): 63% | % inhibition apPOL 180' (DRC-2, 180', concentration 40): 70% | % inhibition apPOL 180' (DRC-2, 180', concentration 80): 69% | % inhibition Apo pol 10' (first dose-response, concentration 5 (unit not given)): 48% | % inhibition Apo pol 10' (first dose-response, concentration 20 (unit not given)): 81% | % inhibition Apol 90' (first dose-response, 90', concentration 20 (unit not given)): 69% | % inhibition Apol 90' (first dose-response, 90', concentration 40 (unit not given)): 81% | DNA Pol (primary screen value of the 186 hits): 49 | DNA Pol (primary screen value, head "DNA Pol"): 49

Cc1nc2c(oc3nc(-c4ccco4)c4c(c32)CC(C)(C)OC4)c(-c2ccccc2)c1C(=O)O [Molecule 86]
IC50: 7.41 µM

CCCCOC(=O)CCCCCN1C(=O)C(=Cc2ccc(OC)cc2)SC1=S [Molecule 75]
IC50: 56.7 µM

O=C1NN(c2ccc(Cl)c(Cl)c2)C(=O)/C1=C/c1ccc(-c2ccc3c(c2)C(=O)OC3)o1 [Molecule 90]
IC50: 3.43 µM

O=C(c1ccccc1)N1CCc2c(nc3cc(-c4ccccc4)[nH]n3c2=O)C1 [Molecule 30]
IC50: 9.54 µM
